Assay results: ChEMBL document CHEMBL1201862, “PubChem BioAssay data set” (2004)
Active and inactive are the calls of the source.

Tests used:
[1] = molecular target: Voltage-gated inwardly rectifying potassium channel KCNH2 (Homo sapiens, UniProt Q12809); assay: hERG protection from proarrhythmic block, potency, dose response, cell-based, thallium flux (AID 2121); assay type: ADME
[2] = tested on: Streptococcus sp. 'group A'; assay: growth inhibition of control SK(-) GAS strain, dose response, counter-screen for streptokinase expression inhibitor project, luminescence, kanamycin, BacTiterGlo, confirmation (AID 1900); assay type: functional, organism-based
Streptococcus = assay: Group A Streptococcus viability loss, dose response, counter-screen for streptokinase expression inhibitor project, luminescence, BacTiterGlo (AID 1915); assay type: functional, organism-based;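 note: potency for reduction of bacterial viability or growth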
Cytochrome P450 3A4 = Cytochrome P450 3A4 (Homo sapiens, UniProt P08684);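 note: CYP3A4 tested as one member of a cytochrome P450 panel screen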
Sequence of Cytochrome P450 3A4 (P08684 whole entry): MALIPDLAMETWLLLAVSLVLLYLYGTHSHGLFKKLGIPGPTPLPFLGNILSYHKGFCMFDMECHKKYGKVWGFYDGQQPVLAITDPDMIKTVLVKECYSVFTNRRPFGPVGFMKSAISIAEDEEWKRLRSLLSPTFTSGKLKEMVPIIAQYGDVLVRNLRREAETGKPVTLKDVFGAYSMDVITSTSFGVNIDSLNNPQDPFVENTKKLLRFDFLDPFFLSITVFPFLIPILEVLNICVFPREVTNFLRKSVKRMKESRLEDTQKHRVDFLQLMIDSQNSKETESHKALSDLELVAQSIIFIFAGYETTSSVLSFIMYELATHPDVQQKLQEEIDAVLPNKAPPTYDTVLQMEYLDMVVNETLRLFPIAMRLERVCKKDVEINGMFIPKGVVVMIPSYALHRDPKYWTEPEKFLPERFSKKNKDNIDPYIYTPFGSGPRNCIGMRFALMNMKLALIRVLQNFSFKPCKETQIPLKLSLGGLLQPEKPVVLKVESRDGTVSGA

Streptokinase A = molecular target: T1, Streptokinase A (Streptococcus pyogenes serotype M1, UniProt P10520); assay: S. pyogenes streptokinase expression inhibitors, potency, dose response, plasminogen activation absorbance, OD405 (AID 1914); assay type: functional, Streptococcus pyogenes M1 GAS;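 note: secreted streptokinase activity via plasminogen activation per viability signal from cell pellet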
T1 sequence (P10520 whole entry): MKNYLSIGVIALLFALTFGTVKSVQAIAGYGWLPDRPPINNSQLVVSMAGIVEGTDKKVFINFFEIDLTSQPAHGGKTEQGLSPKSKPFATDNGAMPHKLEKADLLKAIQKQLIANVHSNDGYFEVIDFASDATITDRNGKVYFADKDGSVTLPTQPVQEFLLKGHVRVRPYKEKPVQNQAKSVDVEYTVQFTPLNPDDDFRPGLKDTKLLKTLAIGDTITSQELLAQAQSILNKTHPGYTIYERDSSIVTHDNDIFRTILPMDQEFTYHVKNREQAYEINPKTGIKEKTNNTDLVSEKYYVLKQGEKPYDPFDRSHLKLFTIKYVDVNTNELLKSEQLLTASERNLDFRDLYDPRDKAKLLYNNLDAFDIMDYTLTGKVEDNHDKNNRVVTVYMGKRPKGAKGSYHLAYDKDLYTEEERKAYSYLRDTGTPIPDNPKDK

Cytochrome P450 2C19 = Cytochrome P450 2C19 (Homo sapiens, UniProt P33261); assay: Cytochrome panel assay with activity outcomes. Panel member name: p450-cyp2c19 Compounds with AC50 equal or less than 10 uM are considered active; assay type: functional; details: read-out: AC50
Sequence of Cytochrome P450 2C19 (P33261 whole entry): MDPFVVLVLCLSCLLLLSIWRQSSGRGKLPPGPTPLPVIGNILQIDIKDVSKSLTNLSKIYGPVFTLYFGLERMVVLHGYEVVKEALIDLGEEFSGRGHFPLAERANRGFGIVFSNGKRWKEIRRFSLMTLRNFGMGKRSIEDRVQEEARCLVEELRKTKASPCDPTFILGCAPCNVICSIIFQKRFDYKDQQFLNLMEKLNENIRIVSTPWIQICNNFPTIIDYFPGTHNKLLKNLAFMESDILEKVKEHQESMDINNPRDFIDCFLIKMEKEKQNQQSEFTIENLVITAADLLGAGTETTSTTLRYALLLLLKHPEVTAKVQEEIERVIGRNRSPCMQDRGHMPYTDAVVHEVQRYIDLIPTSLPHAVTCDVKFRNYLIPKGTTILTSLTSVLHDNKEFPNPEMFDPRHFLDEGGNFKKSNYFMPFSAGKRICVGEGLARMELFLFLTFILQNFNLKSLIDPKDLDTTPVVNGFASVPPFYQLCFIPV

[3] = molecular target: G-protein coupled receptor 55 (Homo sapiens, UniProt Q9Y2T6); assay: GPR55 antagonists blocking LPI-driven arrestin recruitment, primary screen, imaging, U2OS, beta-arrestin-GFP, LPI agonist (AID 2013); assay type: functional;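 note: antagonist potency measured as reduced agonist-driven arrestin aggregation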
Sequence of G-protein coupled receptor 55 (Q9Y2T6 whole entry): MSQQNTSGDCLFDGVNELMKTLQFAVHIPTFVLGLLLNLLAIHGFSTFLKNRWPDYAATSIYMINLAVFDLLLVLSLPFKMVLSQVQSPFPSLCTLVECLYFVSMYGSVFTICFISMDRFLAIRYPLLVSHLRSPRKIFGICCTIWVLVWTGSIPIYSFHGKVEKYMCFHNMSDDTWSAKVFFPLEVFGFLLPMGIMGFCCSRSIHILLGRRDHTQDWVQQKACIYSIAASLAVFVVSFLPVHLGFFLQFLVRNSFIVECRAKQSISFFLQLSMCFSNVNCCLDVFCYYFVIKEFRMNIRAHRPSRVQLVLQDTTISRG

Cytochrome P450 1A2 = molecular target: T2, Cytochrome P450 1A2 (Homo sapiens, UniProt P05177);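 note: PubChem cytochrome P450 panel assay, CYP1A2 panel member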
T2 sequence (P05177 whole entry): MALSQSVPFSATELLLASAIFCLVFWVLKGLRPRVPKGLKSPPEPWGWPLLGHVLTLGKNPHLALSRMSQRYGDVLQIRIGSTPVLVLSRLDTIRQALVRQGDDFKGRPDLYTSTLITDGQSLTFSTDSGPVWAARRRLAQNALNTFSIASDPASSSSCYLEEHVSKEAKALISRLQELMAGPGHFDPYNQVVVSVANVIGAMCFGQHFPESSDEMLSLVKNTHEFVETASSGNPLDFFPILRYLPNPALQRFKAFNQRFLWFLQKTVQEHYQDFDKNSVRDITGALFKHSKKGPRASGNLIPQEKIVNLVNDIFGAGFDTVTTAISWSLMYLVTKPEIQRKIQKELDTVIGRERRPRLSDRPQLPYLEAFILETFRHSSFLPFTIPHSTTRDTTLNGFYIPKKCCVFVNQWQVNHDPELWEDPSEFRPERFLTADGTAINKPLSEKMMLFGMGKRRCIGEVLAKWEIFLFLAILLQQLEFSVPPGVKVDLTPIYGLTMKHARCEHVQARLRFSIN

[4] = molecular target: Heat shock protein HSP 90-alpha (Homo sapiens, UniProt P07900); assay: Luminescence-based dose response biochemical high throughput screening assay for inhibitors of the Heat Shock Protein 90 (HSP90). [Related pubchem assays: 1831 (Summary AID.), 1846 (Confirmation screen.), 1789 (Primary screen.)]
cells = assay type: functional
[5] = Shn3 3'UTR reporter inhibitors, dose response, cell-based, Clone20 osteoblasts, firefly luciferase, cherry-picked (AID 624132); assay type: functional;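 note: firefly luciferase luminescence from reporter carrying the Shn3 3'UTR in osteoblasts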
[6] = cytotoxicity in HEK-293T cells, dose response, cytotoxicity control for TCR NF-kB inhibitor project, luminescence, T-cell screen hits (AID 489026); assay type: functional, cell-based;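 note: cells exposed to compound about 14 hours before the viability readout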
HEK293 = assay: inhibitors of LMP1-driven NF-kB reporter, dose response, cell-based, HEK293, luciferase, cherry-pick (AID 588343); assay type: functional; details: Homo sapiens
Vero = assay: host cell cytotoxicity of antiviral hits, dose response, cytotoxicity control for West Nile virus antiviral project, secondary assay (AID 1650); assay type: functional; details: Chlorocebus sabaeus
[7] = control 3'UTR Renilla luciferase suppression, dose response, counter-screen for Shn3 inhibitor project, cell-based, Clone20-Shn3RL, cherry-picked (AID 624133); assay type: functional
[8] = molecular target: Luciferin 4-monooxygenase (Photinus pyralis, UniProt P08659); assay: firefly luciferase enzyme inhibitors, dose response, biochemical, luminescence (AID 1891)
Sequence of Luciferin 4-monooxygenase (P08659 whole entry): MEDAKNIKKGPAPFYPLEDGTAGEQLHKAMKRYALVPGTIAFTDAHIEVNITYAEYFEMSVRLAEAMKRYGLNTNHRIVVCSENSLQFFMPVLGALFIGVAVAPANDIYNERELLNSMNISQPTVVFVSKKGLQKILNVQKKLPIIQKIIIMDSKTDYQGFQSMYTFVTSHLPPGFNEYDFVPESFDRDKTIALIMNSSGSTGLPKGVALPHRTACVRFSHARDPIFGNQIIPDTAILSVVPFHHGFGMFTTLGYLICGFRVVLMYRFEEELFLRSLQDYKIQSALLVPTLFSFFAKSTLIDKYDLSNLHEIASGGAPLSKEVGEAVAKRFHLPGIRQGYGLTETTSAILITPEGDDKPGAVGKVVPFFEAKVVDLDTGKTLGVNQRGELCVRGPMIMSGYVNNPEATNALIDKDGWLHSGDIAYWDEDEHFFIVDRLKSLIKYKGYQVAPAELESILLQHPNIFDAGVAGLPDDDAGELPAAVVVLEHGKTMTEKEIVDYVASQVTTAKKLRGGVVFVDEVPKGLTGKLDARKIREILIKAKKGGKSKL

BJ [9] = assay: cells; assay type: functional, cell-based; details: Homo sapiens
Paired box protein Pax-8 = Paired box protein Pax-8 (Homo sapiens, UniProt Q06710); assay: inhibitors of PAX8-driven TPO luciferase reporter, dose response, RMG-I cells, cherry-pick (AID 687027); assay type: functional, cell-based;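 note: luciferase reporter driven by Pax8 target thyroperoxidase promoter measured by SteadyGlo luminescence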
Sequence of Paired box protein Pax-8 (Q06710 whole entry): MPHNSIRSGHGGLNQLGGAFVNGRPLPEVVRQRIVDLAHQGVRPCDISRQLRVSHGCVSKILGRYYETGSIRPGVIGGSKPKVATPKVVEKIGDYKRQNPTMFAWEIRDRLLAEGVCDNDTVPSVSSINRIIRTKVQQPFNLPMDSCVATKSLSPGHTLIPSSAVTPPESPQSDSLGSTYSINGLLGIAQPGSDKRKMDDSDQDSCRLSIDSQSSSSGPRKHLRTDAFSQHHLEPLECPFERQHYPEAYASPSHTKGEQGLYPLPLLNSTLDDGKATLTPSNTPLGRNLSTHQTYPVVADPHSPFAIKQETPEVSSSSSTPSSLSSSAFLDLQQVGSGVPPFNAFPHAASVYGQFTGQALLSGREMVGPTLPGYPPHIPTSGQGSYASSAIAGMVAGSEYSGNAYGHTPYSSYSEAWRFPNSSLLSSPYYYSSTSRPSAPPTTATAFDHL

[10] = HepG2 cell cytotoxicity, dose response, cytotoxicity control for Shn3 inhibitor project, CellTiter-Glo, cherry-picked (AID 624134); assay type: functional, cell-based
BJ [11] = assay: cytotoxicity toward BJ-TERT fibroblasts, dose response, cell-based, RAS-independent, luminescence (AID 1933); assay type: functional; details: Homo sapiens
[12] = Luminescence Cell-Based Dose Confirmation HTS to Identify Inhibitors of Platelet Dense Granule Release. [Related pubchem assays: 1663 (Primary HTS), 1678 (Summary of Project)]; assay type: functional
[13] = P. falciparum late gametocyte killing, dose response, luminescence (AID 1117278); assay type: functional, cell-based;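 note: gametocytes exposed to compound for 24 hours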
[14] = LGR2 antagonists, dose response, cell-based, HEK293, CRE-luciferase reporter, cherry pick, set 2 (AID 743343); assay type: functional;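 note: transfected cells were stimulated with diluted bursicon conditioned medium after compound addition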
[15] = cytotoxicity toward DRD oncogenic fibroblasts, dose response, cell-based, non-viral oncogenic, luminescence (AID 1934); assay type: functional; details: Homo sapiens
[16] = non-specific cell cytotoxicity, dose response, cytotoxicity control for PAX8 inhibitor project, plate reader, dry powder samples (AID 743021); assay type: functional, cell-based
BJ [17] = assay: cytotoxicity toward Ras-transformed BJeLR fibroblasts, dose response, cell-based, alamar blue fluorescence, cherrypicked samples (AID 2631); assay type: functional; details: Homo sapiens;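 note: confirmatory dose-response assay in RAS-dependent BJ fibroblasts engineered with TERT, LT and ST, with cytotoxicity read by fluorescence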
BJ [18] = assay: cytotoxicity toward BJ-TERT-LT-ST fibroblasts, dose response, cell-based, RAS-independent, luminescence (AID 1935); assay type: functional; details: Homo sapiens;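 note: BJ fibroblasts immortalized with TERT plus LT and ST oncogenes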
[19] = HepG2 cell cytotoxicity, dose response, cytotoxicity control, plate reader, cherry-pick, antagonist series (AID 743416); assay type: functional, cell-based
[20] = MC4R antagonists, dose response, counter-screen for LGR2 antagonist project, cell-based, plate reader, cherry pick (AID 743444); assay type: functional;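 note: transfected HEK 293 cells stimulated with alpha-MSH peptide; potency of inhibitors of the alpha-MSH evoked signal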
[21] = A549 cell cytotoxicity, dose response, cytotoxicity control, plate reader, cherry-pick, antagonist series (AID 743412); assay type: functional, cell-based
[22] = Jurkat T cell cytotoxicity, dose response, cytotoxicity control for P. falciparum gametocyte viability project, luminescence (AID 1117277); assay type: functional, cell-based;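 note: potency reflects loss of cellular ATP meaning fewer viable cells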
[23] = HEK293 cell cytotoxicity, dose response, cytotoxicity control, plate reader, cherry-picked samples (AID 743446); assay type: functional, cell-based

Sequence of Voltage-gated inwardly rectifying potassium channel KCNH2 (Q12809 whole entry): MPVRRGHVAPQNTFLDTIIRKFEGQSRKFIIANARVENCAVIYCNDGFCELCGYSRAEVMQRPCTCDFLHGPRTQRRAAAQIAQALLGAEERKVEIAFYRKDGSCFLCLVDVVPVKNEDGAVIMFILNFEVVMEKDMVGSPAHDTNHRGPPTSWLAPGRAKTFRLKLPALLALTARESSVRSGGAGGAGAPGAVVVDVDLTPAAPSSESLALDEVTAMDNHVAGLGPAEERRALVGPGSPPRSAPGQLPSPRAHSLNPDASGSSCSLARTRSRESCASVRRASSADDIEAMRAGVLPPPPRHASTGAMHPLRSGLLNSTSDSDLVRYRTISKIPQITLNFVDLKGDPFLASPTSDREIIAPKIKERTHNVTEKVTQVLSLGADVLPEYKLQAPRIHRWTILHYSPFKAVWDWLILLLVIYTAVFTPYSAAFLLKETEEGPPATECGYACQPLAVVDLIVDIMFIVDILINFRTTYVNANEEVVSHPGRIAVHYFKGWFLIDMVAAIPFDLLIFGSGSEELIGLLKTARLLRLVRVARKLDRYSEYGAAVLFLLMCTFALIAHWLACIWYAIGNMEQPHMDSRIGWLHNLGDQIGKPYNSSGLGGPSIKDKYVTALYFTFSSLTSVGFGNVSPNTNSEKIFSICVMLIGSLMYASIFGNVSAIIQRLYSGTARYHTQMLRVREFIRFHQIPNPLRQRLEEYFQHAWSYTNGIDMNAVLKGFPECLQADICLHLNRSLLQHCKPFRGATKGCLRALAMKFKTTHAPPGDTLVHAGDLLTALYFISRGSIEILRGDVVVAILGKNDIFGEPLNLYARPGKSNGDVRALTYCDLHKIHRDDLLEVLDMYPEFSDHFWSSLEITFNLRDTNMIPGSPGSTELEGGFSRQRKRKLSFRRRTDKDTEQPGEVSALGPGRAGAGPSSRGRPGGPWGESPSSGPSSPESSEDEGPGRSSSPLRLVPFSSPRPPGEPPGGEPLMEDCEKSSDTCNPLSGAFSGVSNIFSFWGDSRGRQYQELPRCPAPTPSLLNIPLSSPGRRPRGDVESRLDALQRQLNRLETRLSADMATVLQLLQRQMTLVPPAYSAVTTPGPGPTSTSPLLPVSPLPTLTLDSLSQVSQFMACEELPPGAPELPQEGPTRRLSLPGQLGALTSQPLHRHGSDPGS

COc1ccc(C(=O)NNC(=O)C(=O)Nc2ccc(C)c(Cl)c2)cc1
active: EC50 [1] 0.06 µM

COc1ccc(/C=C2/SC(N/N=C3\CC4CCC3(C)C4(C)C)=NC2=O)cc1 (stereo not given)
> 150 µM (not active): EC50 (Streptococcus) | EC50 (Streptokinase A)
inconclusive: AC50 (Cytochrome P450 3A4) 12.6 µM | AC50 (Cytochrome P450 2C19) 20 µM | AC50 (Cytochrome P450 1A2) 14.1 µM
active: EC50 [2] 3.92 µM | IC50 [3] 6 µM | EC50 [1] 0.22 µM

CCOC(=O)c1csc(COc2ccc(OC)cc2)n1
active: IC50 [4] 8.03 µM | IC50 (cells) 47.7 µM

CS(=O)(=O)c1ccc(Sc2nc3ccccc3s2)c([N+](=O)[O-])c1
active: AC50 [5] 9.73 µM | AC50 (HEK293) 4.87 µM | CC50 (Vero) 18.3 µM | AC50 [7] 31.2 µM
inactive: IC50 [6] 79.5 µM

O=c1c2ccccc2cnn1-c1nc2ccccc2[nH]1
active: EC50 [8] 1.16 µM | EC50 (BJ [9]) 4.94 µM | AC50 [5] 1.33 µM | AC50 (Paired box protein Pax-8) 1.65 µM | AC50 [10] 12.1 µM | EC50 (BJ [11]) 5.15 µM | EC50 [12] 0.144 µM | AC50 [14] 0.275 µM | EC50 [15] 5.22 µM | AC50 [16] 3.39 µM | EC50 (BJ [18]) 4.79 µM | AC50 [19] 8.61 µM | AC50 [7] 27.2 µM | AC50 [20] 0.288 µM | AC50 [21] 2.6 µM | IC50 [22] 3.98 µM | AC50 [23] 2.23 µM
inactive: IC50 [13] 15.2 µM | EC50 (BJ [17]) > 133 µM
